Measured values published in patent publication US20040259948A1, “Reciprocal regulation of inflammation and lipid metabolism by liver X receptors” (priority 2003, published 2004).

Target: T1, LXRβ/RXRα (Homo sapiens, UniProt P55055)
T1 construct: expressed in transfected cells; host or cells: RAW 264.7
T1 sequence (P55055 1-460): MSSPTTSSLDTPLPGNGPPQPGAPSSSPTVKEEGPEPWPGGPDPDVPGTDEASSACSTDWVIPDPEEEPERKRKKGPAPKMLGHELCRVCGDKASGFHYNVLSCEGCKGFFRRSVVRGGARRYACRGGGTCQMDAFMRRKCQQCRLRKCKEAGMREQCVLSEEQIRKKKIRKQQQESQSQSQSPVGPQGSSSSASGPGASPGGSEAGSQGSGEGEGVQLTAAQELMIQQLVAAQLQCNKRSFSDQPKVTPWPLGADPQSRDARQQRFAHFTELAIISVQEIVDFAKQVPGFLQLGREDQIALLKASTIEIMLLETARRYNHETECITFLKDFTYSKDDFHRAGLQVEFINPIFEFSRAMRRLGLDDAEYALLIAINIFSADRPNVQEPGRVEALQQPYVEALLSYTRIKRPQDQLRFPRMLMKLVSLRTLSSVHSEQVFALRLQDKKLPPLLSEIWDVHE
T1 sequence (P19793 1-462 partner): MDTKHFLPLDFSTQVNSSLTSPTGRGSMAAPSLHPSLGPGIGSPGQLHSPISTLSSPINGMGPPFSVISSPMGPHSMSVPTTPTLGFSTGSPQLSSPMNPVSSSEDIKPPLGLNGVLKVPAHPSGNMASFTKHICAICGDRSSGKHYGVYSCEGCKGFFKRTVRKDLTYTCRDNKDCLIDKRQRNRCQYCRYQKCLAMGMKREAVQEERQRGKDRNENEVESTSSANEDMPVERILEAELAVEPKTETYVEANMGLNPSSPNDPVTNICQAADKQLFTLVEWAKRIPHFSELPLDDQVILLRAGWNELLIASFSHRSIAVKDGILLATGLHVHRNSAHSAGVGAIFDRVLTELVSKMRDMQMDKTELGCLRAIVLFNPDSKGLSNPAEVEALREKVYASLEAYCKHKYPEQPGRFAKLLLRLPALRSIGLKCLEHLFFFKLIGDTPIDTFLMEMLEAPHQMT
Experiment: Luciferase reporter transfection in RAW 264.7 cells, LXRβ/RXRα
Assay type: cell-based
Settings: 2 μM
Procedure: We next investigated the mechanism by which LXR inhibits iNOS and COX-2 expression. […] RAW 264.7 cells were transfected with expression vectors for either LXRα/RXRα or LXRβ/RXRα along with luciferase reporter constructs. The LXR agonist inhibited expression of both iNOS and COX-2 gene promoters in a receptor-dependent fashion (FIG. 4 A and B). […] E, A dominant-negative IKK expression vector (IKK DN) blocks LXR-dependent repression of the COX-2 promoter. Transfected cells were treated with DMSO (ctrl), GW3965 (GW), LPS, or GW3965 and LPS. […] RAW 264.7 cells were transiently transfected with expression vectors for LXRα/RXRα, LXRβ/RXRα or dominant-negative I kappa B kinase (IKK) along with iNOS (A), COX-2 (B, E, F), NF-κB (C), AP-1 (D) or COX-2/NF-κB mutant (F) luciferase reporters. […] As activation of iNOS and COX-2 gene promoters by LPS is known to depend on interactions between AP-1 and NF-κB transcription factors, the effect of LXR on minimal promoters containing binding sites for these factors was evaluated. […] Moreover, the inhibitory effect of LXR on the COX-2 promoter was lost when NF-κB activity was blocked by transfection of a dominant-negative IKK or when binding sites for NF-κB were mutated (FIGS. 4E and F). These observations indicate that inhibition of inflammatory gene expression by LXR ligands involves antagonism of NF-κB signaling.
Reagents and plasmids. […] Oxysterols, LDL and ox-LDL were from Sigma and Intracell, respectively. LPS from Salmonella typhimurium was from Sigma. Expression plasmids for LXRα, LXRβ and IKK-DN (Castrillo, A. et al. 2001 J Biol Chem 276:15854-15860; Laffitte, B. A. et al. 2001 Mol Cell Biol 21:7558-7568), and reporter plasmids for NOS-2, (NFκB)3-LUC, (AP-1)4-LUC and COX-2 have been described (Callejas, N. A. et al. 2000 Gastroenterology 119:493-501).
Cell culture and transfections. Thioglycolate-elicited peritoneal macrophages were cultured in RPMI containing 10% fetal bovine serum (FBS). […] NO production was determined spectrophotometrically (Castrillo, A. et al. 2000 Mol Cell Biol 20:1692-1698).

induction of the COX-2 promoter by LPS (luciferase reporter): inhibits induction
induction of the iNOS promoter by LPS (luciferase reporter): inhibits induction
luciferase reporter containing multiple NF-κB binding sites (LPS): inhibits expression
SMILES: O=C(O)Cc1cccc(OCCCN(Cc2cccc(C(F)(F)F)c2Cl)CC(c2ccccc2)c2ccccc2)c1 [GW3965]
